Measurements: PubChem BioAssay AID248 (DTP/NCI, 2004)
“And” between values parts separate entries of the source, which are not always exact repeats. Equal entries are not always repeated. Toxic doses and inconclusive results are not listed. No stated cut-off is given here; in the data, active means T/C of 150% or more; inactive means T/C below 125%.

Test system: L1210 leukemia ip in BDF1 mice, survival T/C
Assay: NCI In Vivo Anticancer Drug Screen. Data for tumor model L1210 Leukemia (intraperitoneal) in B6D2F1 (BDF1) mice
Conditions: endpoint: mean survival time, higher = longer survival
Outline: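 Ratio derived from survival: compound-dosed mice over vehicle-dosed mice, all bearing a transplantable tumor.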

[1] = dose: 100.0 mg/kg/injection, schedule: Q04DX003 (ip), vehicle: saline
[2] = dose: 200.0 mg/kg/injection, schedule: Q01DX009 (ip), vehicle: saline
[3] = dose: 200.0 mg/kg/injection, schedule: Q04DX003 (ip), vehicle: saline
[4] = dose: 100.0 mg/kg/injection, schedule: Q01DX001 (ip), vehicle: saline with Tween-80
[5] = dose: 200.0 mg/kg/injection, schedule: Q01DX001 (ip), vehicle: saline with Tween-80
[6] = dose: 100.0 mg/kg/injection, schedule: Q01DX001 (ip), vehicle: saline
[7] = dose: 100.0 mg/kg/injection, schedule: Q01DX009 (ip), vehicle: saline
[8] = dose: 100.0 mg/kg/injection, schedule: Q04DX002 (ip), vehicle: saline
[9] = dose: 200.0 mg/kg/injection, schedule: Q01DX001 (ip), vehicle: saline
[10] = dose: 200.0 mg/kg/injection, schedule: Q04DX002 (ip), vehicle: saline
[11] = dose: 400.0 mg/kg/injection, schedule: Q01DX001 (ip), vehicle: saline
[12] = dose: 400.0 mg/kg/injection, schedule: Q01DX009 (ip), vehicle: saline
[13] = dose: 400.0 mg/kg/injection, schedule: Q04DX002 (ip), vehicle: saline
[14] = dose: 100.0 mg/kg/injection, schedule: Q04DX003 (ip), vehicle: Klucel (hydroxypropylcellulose) (HPC)
[15] = dose: 400.0 mg/kg/injection, schedule: Q04DX003 (ip), vehicle: Klucel (hydroxypropylcellulose) (HPC)
[16] = dose: 100.0 mg/kg/injection, schedule: Q01DX009 (ip), vehicle: saline with Tween-80
[17] = dose: 200.0 mg/kg/injection, schedule: Q01DX009 (ip), vehicle: saline with Tween-80
[18] = dose: 400.0 mg/kg/injection, schedule: Q04DX003 (ip), vehicle: saline
[19] = dose: 50.0 mg/kg/injection, schedule: Q01DX009 (ip), vehicle: Klucel (hydroxypropylcellulose) (HPC)
[20] = dose: 100.0 mg/kg/injection, schedule: Q01DX009 (ip), vehicle: Klucel (hydroxypropylcellulose) (HPC)
[21] = dose: 200.0 mg/kg/injection, schedule: Q01DX009 (ip), vehicle: Klucel (hydroxypropylcellulose) (HPC)
[22] = dose: 200.0 mg/kg/injection, schedule: Q04DX003 (ip), vehicle: Klucel (hydroxypropylcellulose) (HPC)
[23] = dose: 100.0 mg/kg/injection, schedule: Q04DX003 (ip), vehicle: saline with Tween-80
[24] = dose: 400.0 mg/kg/injection, schedule: Q04DX003 (ip), vehicle: saline with Tween-80

Measured: T/C

COc1cc2cc3c4cc(OC)c(OC)cc4cc[n+]3c(/C=C/c3ccccc3)c2cc1OC
inactive: dose: 100.0 mg/kg/injection, schedule: Q04DX003 (ip), vehicle: carboxymethylcellulose (CMC) 102 % of control | dose: 200.0 mg/kg/injection, schedule: Q04DX003 (ip), vehicle: carboxymethylcellulose (CMC) 110 % of control | dose: 400.0 mg/kg/injection, schedule: Q04DX003 (ip), vehicle: carboxymethylcellulose (CMC) 100 % of control

Cc1nc(CON)cs1
inactive: dose: 50.0 mg/kg/injection, schedule: Q01DX009 (ip), vehicle: saline 92 % of control | [1] 100 % of control | [2] 90 % of control | [3] 92 % of control

CCN(CC)CCN(Cc1ccccc1)C(=O)C(O)(c1ccccc1)c1ccccc1
inactive: [4] 105 % of control | [5] 108 % of control

Nc1ccc2c(c1)C(=O)c1ccccc1C2=O
inactive: dose: 50.0 mg/kg/injection, schedule: Q01DX001 (ip), vehicle: saline 98 % of control | [6] 102 % of control | [7] 92 % of control | [8] 100 % of control | [9] 102 % of control | [2] 92 % of control | [10] 93 % of control | [11] 102 % of control | [12] 92 % of control | [13] 93 % of control

CC(C)=CCc1c2c(c3occ(-c4ccc(O)cc4)c(=O)c3c1O)C=CC(C)(C)O2
inactive: [14] 88 % of control | [15] 88 % of control

Clc1ccc2c(NCCc3cnc[nH]3)ccnc2c1
inactive: [16] 94 % of control | [17] 94 % of control

O=S(=O)(CC(I)c1ccccc1)c1ccccc1 (configuration not stated)
inactive: [1] 105 % of control | [3] 94 % of control | [18] 92 % of control

C=COCCCCCC(C)C
inactive: [19] 96 % of control | [20] 106 % of control | [14] 107 % of control | [21] 91 % of control | [22] 105 % of control | [15] 104 % of control

C1COC(COCC2CO2)C1 (configuration not stated)
inactive: [7] 100 % of control | [8] 98 % of control and 100 % of control and 120 % of control | [1] 99 % of control | [2] 92 % of control | [10] 103 % of control and 109 % of control and 111 % of control | [3] 98 % of control | [12] 93 % of control | [13] 98 % of control and 102 % of control (2×) | [18] 105 % of control

CCNC(=S)C(=S)NCC
inactive: dose: 3.0 mg/kg/injection, schedule: Q01DX009 (ip), vehicle: Klucel (hydroxypropylcellulose) (HPC) 92 % of control | dose: 3.12 mg/kg/injection, schedule: Q04DX003 (ip), vehicle: Klucel (hydroxypropylcellulose) (HPC) 100 % of control | dose: 6.0 mg/kg/injection, schedule: Q01DX009 (ip), vehicle: Klucel (hydroxypropylcellulose) (HPC) 97 % of control | dose: 6.25 mg/kg/injection, schedule: Q04DX003 (ip), vehicle: Klucel (hydroxypropylcellulose) (HPC) 104 % of control | dose: 12.5 mg/kg/injection, schedule: Q04DX003 (ip), vehicle: Klucel (hydroxypropylcellulose) (HPC) 98 % of control and 106 % of control

Cc1ncsc1CCO
inactive: [4] 98 % of control | [5] 102 % of control | dose: 400.0 mg/kg/injection, schedule: Q01DX001 (ip), vehicle: saline with Tween-80 94 % of control

O=C(O)c1cccc2c1ccc1ccccc12
inactive: dose: 75.0 mg/kg/injection, schedule: Q04DX003 (ip), vehicle: saline 104 % of control | dose: 150.0 mg/kg/injection, schedule: Q04DX003 (ip), vehicle: saline 102 % of control | dose: 300.0 mg/kg/injection, schedule: Q04DX003 (ip), vehicle: saline 100 % of control

COc1ccccc1NC(=O)CSC(N)=O
inactive: dose: 75.0 mg/kg/injection, schedule: Q## X000 (ip), vehicle: carboxymethylcellulose (CMC) 100 % of control | dose: 125.0 mg/kg/injection, schedule: Q## X000 (ip), vehicle: carboxymethylcellulose (CMC) 105 % of control | dose: 175.0 mg/kg/injection, schedule: Q## X000 (ip), vehicle: carboxymethylcellulose (CMC) 100 % of control | dose: 200.0 mg/kg/injection, schedule: Q01DX Z (ip), vehicle: carboxymethylcellulose (CMC) 104 % of control | dose: 400.0 mg/kg/injection, schedule: Q01DX Z (ip), vehicle: carboxymethylcellulose (CMC) 105 % of control

COC(COS(=O)(=O)c1ccc(Br)cc1)(c1ccccc1)c1ccccc1
inactive: dose: 50.0 mg/kg/injection, schedule: Q01DX009 (ip), vehicle: saline with Tween-80 87 % of control

c1csc(C2SC(c3cccs3)SC(c3cccs3)S2)c1 (configuration not stated)
inactive: dose: 100.0 mg/kg/injection, schedule: Q01DX001 (ip), vehicle: carboxymethylcellulose (CMC) 100 % of control | dose: 200.0 mg/kg/injection, schedule: Q01DX001 (ip), vehicle: carboxymethylcellulose (CMC) 92 % of control | dose: 400.0 mg/kg/injection, schedule: Q01DX001 (ip), vehicle: carboxymethylcellulose (CMC) 95 % of control

CCOC(=O)C(C(=O)O)C(=O)CCO (configuration not stated)
inactive: [6] 98 % of control | [9] 94 % of control

CCn1c[n+](-c2ccccc2)cn1
inactive: [6] 106 % of control

CC(C)(C)OC(=O)NC(Cc1ccccc1)C(=O)O (configuration not stated)
inactive: [6] 100 % of control | [9] 94 % of control | [11] 93 % of control

CCCCCCCCCCCCSC1=NCCN1
inactive: dose: 25.0 mg/kg/injection, schedule: Q04DX003 (ip), vehicle: Klucel (hydroxypropylcellulose) (HPC) 100 % of control | dose: 45.0 mg/kg/injection, schedule: Q04DX003 (ip), vehicle: Klucel (hydroxypropylcellulose) (HPC) 95 % of control | dose: 87.5 mg/kg/injection, schedule: Q04DX003 (ip), vehicle: Klucel (hydroxypropylcellulose) (HPC) 100 % of control | dose: 88.0 mg/kg/injection, schedule: Q04DX003 (ip), vehicle: Klucel (hydroxypropylcellulose) (HPC) 103 % of control

CSc1nc(N)cc(NC(=O)CCl)n1
inactive: [19] 101 % of control | [20] 102 % of control | [14] 92 % of control | [22] 92 % of control

O=C(Cl)c1cccc2c1sc1ccccc12
inactive: [16] 102 % of control | [23] 97 % of control | [17] 102 % of control | dose: 200.0 mg/kg/injection, schedule: Q04DX003 (ip), vehicle: saline with Tween-80 98 % of control | dose: 400.0 mg/kg/injection, schedule: Q01DX009 (ip), vehicle: saline with Tween-80 100 % of control | [24] 98 % of control

CCCCC/C=C/c1c(C)[nH]c2ccccc2c1=O
inactive: [20] 118 % of control | [14] 100 % of control | [21] 94 % of control | [22] 96 % of control | dose: 400.0 mg/kg/injection, schedule: Q01DX009 (ip), vehicle: Klucel (hydroxypropylcellulose) (HPC) 99 % of control | [15] 89 % of control

CCC1CSC(=S)N1 (configuration not stated)
inactive: dose: 3.12 mg/kg/injection, schedule: Q01DX009 (ip), vehicle: acetone 92 % of control | dose: 3.12 mg/kg/injection, schedule: Q04DX003 (ip), vehicle: saline 103 % of control | dose: 6.25 mg/kg/injection, schedule: Q01DX009 (ip), vehicle: acetone 102 % of control | dose: 6.25 mg/kg/injection, schedule: Q04DX003 (ip), vehicle: saline 101 % of control | dose: 12.5 mg/kg/injection, schedule: Q04DX003 (ip), vehicle: saline 102 % of control

CC1C2CCC(C2)C1C(=O)O (configuration not stated)
inactive: dose: 100.0 mg/kg/injection, schedule: Q01DX009 (ip), vehicle: other 97 % of control | [23] 96 % of control | dose: 200.0 mg/kg/injection, schedule: Q01DX009 (ip), vehicle: other 109 % of control | dose: 400.0 mg/kg/injection, schedule: Q01DX009 (ip), vehicle: other 95 % of control | [24] 87 % of control
